Test results from paper PMC11277476, “Synthesis and Biological Evaluation of Novel 2-Aroyl Benzofuran-Based Hydroxamic Acids as Antimicrotubule Agents” (International Journal of Molecular Sciences, 2024).
Read-outs that look alike come from different tables or passages of the source.

Columns and labels:
[1] = tested on: HeLa cells; experiment: In vitro growth inhibition (resazurin, 72 h), HeLa; assay type: cell-based; conditions: Homo sapiens, concentration inhibiting tumor cell proliferation by 50%, mean ± SE
[2] = tested on: MDA-MB-231 cells; experiment: In vitro growth inhibition (resazurin, 72 h), MDA-MB-231; assay type: cell-based; conditions: Homo sapiens, mean ± SE
[3] = tested on: A549 cells; experiment: In vitro growth inhibition (resazurin, 72 h), A549; assay type: cell-based; conditions: Homo sapiens, mean ± SE
[4] = tested on: HT-29 cells; experiment: In vitro growth inhibition (resazurin, 72 h), HT-29; assay type: cell-based; conditions: Homo sapiens, mean ± SE
[5] = tested on: MCF-7 cells; experiment: In vitro growth inhibition (resazurin, 72 h), MCF-7; assay type: cell-based; conditions: Homo sapiens, MCF7, mean ± SE
[6] = tested on: bovine brain tubulin; experiment: Inhibition of tubulin polymerization (turbidimetric); assay type: biochemical; conditions: tubulin at 10 μM; 20 min incubation at 30 °C; read-out: Tubulin Assembly IC50 ± SD
Protocol: (§1) Bovine brain tubulin was purified as described previously. To evaluate the effects of the compounds on tubulin assembly in vitro [77], varying concentrations were preincubated with 10 μM tubulin in 0.8 M monosodium glutamate (pH 6.6) at 30 °C, and the reaction mixtures were then cooled to 0 °C. After addition of GTP, the mixtures were transferred to 0 °C cuvettes in Beckman Coulter (Brea, CA, USA) DU-7400/DU-7500 recording spectrophotometers equipped with electronic temperature controllers and were warmed to 30 °C, and the assembly of tubulin was observed turbidimetrically. […] Inhibition of colchicine binding to tubulin was measured as described before, except that the reaction mixtures contained 0.5 μM tubulin and 5 μM each of [^3H]colchicine and test compound. Only one DEAE-cellulose filter was used per sample, and filtration was via gravity.

[7] = tested on: tubulin (colchicine site); experiment: Inhibition of [3H]colchicine binding to tubulin; parameters: species or system bovine; conditions: tubulin 0.5 µM, [3H]colchicine 5 µM, tested compound 5 µM
Protocol: as §1

[8] = molecular target: T1, human recombinant HDAC6 (Homo sapiens, UniProt Q9UBN7); experiment: HDAC isoform inhibition, fluorogenic substrate, HDAC6; assay type: biochemical; conditions: mean ± SE; for IC50: read-out: IC50 (µM) hHDAC6
T1 construct: purchased BPS Bioscience 50056
T1 sequence (Q9UBN7 1-1215): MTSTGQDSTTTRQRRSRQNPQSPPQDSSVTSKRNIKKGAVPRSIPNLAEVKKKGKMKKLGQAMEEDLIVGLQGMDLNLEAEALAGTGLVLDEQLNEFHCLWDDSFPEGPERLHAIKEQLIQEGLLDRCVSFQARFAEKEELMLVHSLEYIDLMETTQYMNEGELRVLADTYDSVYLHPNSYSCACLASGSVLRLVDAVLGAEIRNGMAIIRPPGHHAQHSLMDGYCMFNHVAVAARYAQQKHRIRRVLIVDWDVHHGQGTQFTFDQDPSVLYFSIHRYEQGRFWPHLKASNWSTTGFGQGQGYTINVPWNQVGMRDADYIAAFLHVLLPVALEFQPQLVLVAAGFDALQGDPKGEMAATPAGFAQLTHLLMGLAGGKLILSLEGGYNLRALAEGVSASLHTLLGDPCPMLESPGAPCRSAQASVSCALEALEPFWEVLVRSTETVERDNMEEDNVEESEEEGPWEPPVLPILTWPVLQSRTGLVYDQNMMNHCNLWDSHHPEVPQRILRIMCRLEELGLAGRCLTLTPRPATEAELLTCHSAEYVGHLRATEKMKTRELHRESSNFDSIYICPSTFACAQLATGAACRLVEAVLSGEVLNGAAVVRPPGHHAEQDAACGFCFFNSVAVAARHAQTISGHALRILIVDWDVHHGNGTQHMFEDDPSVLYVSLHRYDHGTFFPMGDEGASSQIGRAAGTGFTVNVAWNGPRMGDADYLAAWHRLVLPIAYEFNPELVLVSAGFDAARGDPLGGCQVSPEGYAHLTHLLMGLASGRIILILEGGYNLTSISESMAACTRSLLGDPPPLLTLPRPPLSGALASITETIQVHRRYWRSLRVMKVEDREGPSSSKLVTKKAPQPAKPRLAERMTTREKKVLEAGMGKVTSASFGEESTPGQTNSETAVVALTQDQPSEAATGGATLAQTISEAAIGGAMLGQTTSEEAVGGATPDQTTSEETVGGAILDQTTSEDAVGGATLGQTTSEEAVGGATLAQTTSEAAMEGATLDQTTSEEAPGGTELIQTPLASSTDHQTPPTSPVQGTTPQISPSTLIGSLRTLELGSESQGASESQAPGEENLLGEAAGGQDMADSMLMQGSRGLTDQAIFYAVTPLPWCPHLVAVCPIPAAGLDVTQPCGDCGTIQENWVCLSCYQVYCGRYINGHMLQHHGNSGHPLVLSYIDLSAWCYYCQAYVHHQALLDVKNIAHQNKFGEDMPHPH
Protocol: Further experiments were also carried out to evaluate the inhibitory activities of test compounds on selected HDAC isoforms. […] Following an incubation of 15 min at RT, fluorescence was measured in an EnSight multimodal plate reader (PerkinElmer, Boston, MA, USA) with an excitation wavelength of 360 nm and an emission wavelength of 450 nm.

[9] = tested on: panel of five human cancer cell lines (HeLa, MDA-MB-231, A549, HT-29, MCF-7); experiment: In vitro growth inhibition, range over the panel of five cancer cell lines
Protocol: All the cell lines were purchased from the American Type Culture Collection (ATCC, Manassas, VA, USA). Drug stock solutions were prepared for each compound by dissolving them in DMSO at 10 mM.
Cancer cells were seeded in tissue treated, flat bottom, 384-well plates (Corning, Corning, NY, USA) according to their optimal density, in 27 μL of complete medium per well, using a Microlab STAR 96-CORE liquid handling system (Hamilton Bonaduz, Bonaduz, Switzerland) as described previously [75]. Each compound was tested in a 6-points 2-fold dose–response curve, and each dose was tested in duplicate within each plate, in three independent experiments. The final concentration of DMSO in the wells never exceeded 0.1%, which was the maximum concentration.
Only plates with acceptable Z-prime quality metrics (Z′ > 0.6) were further analyzed for the drug screening. Raw data were normalized according to the following equation: cell viability (%) = (x − POS)/(NEG − POS) × 100, where x is the relative fluorescence units (RFU) collected from each single well, NEG is the mean of intraplate negative controls (DMSO, corresponding to 100% cell viability), and POS is the mean of intraplate positive controls (Bortezomib 1 μΜ, equal to 0% cell viability).

[10] = tested on: HT-29 cells; experiment: Cell cycle analysis (PI, flow cytometry); assay type: cell-based, human; conditions: 250 nM for 24 h (figure legend)
Protocol: HT29 cells were treated with the indicated compounds for 24 h and then harvested and fixed in 70% ice-cold ethanol for 24 h. The cells were next treated with a 0.1% v/v solution of Triton X-100 in phosphate buffered saline (PBS) containing 10 μg/mL RNAse A and 20 μg/mL PI. The cells were incubated at room temperature for 30 min and then analyzed on a BD FACS Celesta^TM Flow Cytometer (BD Bioscience, Franklin Lakes, NJ, USA) in the FL3 channel. DNA histograms were analyzed using FlowJo_v10.7.1 software (BD Bioscience, Franklin Lakes, NJ, USA).

[11] = tested on: HT-29 cells; experiment: Annexin V-PI flow cytometric analysis of apoptosis, HT-29; assay type: cell-based, human; conditions: 96 h
Protocol: The quantification of apoptosis induced by the test compounds was carried out with flow cytometric analysis using the Annexin-V Fluos kit (Roche Diagnostics, Milan, Italy) following the manufacturer’s instructions. Cancer cells treated with the test compounds for the indicated time points and concentrations were then labeled with annexin V/FITC and PI and analyzed with BD FACS Celesta^TM Flow Cytometer (BD Bioscience, Franklin Lakes, NJ, USA) using the FL1 and FL3 channel, respectively, and FlowJo_v10.7.1 software.

[12] = read-out: IC50 values, range or bound over the cancer cell line panel

SMILES	IC50 [1] [nM]	IC50 [2] [nM]	IC50 [3] [nM]	IC50 [4] [nM]	IC50 [5] [nM]	IC50 [6] [nM]	Colchicine Binding % Inhibition ± SD [7] [%]	IC50 [8] [µM]	melting point [°C]	IC50 [9, 12] [nM]	IC50 ([9]; read-out: IC50 values, range over the cancer cell line panel) [nM]	IC50 (µM) hHDAC6 [8]	Percentage of HT-29 cells in G1 phase [10] [%]	Percentage of HT-29 cells in G2/M phase [10] [%]	Percentage of HT-29 cells in S phase [10] [%]	induction of apoptosis / cell death (annexin V/PI), in words [11]
COc1cc2oc(C(=O)c3ccc(OC)c(OC)c3)c(C)c2cc1/C=C/C(=O)NO [Compound 6b, (E)-3-(2-(3,4-Dimethoxybenzoyl)-6-methoxy-3-methylbenzofuran-5-yl)-N-hydroxyacrylamide]	36.8 ± 4.13	72.6 ± 5.03	187 ± 1.02	401 ± 2.03	40 ± 4	1100 ± 200	41 ± 5	> 30	198 to 199	–	–	–	–	–	–	–
COc1ccc(C(=O)c2oc3cc(OC)c(/C=C/C(=O)NO)cc3c2C)cc1 [Compound 6d, (E)-N-Hydroxy-3-(6-methoxy-2-(4-methoxybenzoyl)-3-methylbenzofuran-5-yl)acrylamide]	47.6 ± 1.22	322 ± 12.4	222 ± 1.09	881 ± 8.23	59 ± 10	1700 ± 100	27 ± 4	12.6 ± 0.8	168 to 170	–	–	–	–	–	–	–
COc1cc(C(=O)c2oc3ccc(/C=C/C(=O)NO)cc3c2C)cc(OC)c1OC [Compound 6h, (E)-N-Hydroxy-3-(3-methyl-2-(3,4,5-trimethoxybenzoyl)benzofuran-5-yl)acrylamide]	> 10000	> 10000	> 10000	> 10000	> 10000	–	–	–	188 to 190	> 10000	–	–	–	–	–	–
C#Cc1cc2c(C)c(C(=O)c3cc(OC)c(OC)c(OC)c3)oc2cc1OC [Compound 8, (5-ethynyl-6-methoxy-3-methyl-benzofuran-2-yl)-(3,4,5-trimethoxyphenyl)methanone]	18.2 ± 0.02	81.2 ± 6	122 ± 8.6	207 ± 14	–	–	–	–	186 to 188	–	18 to 207	–	–	–	–	–
COc1cc2oc(C(=O)c3ccc(OC)c(OC)c3)c(C)c2cc1C#CC(=O)NO [Compound 11b, 3-[2-(3,4-Dimethoxybenzoyl)-6-methoxy-3-methyl-1-benzofuran-5-yl]-N-hydroxyprop-2-ynamide]	69.4 ± 1.45	377 ± 1.09	972 ± 7.47	2.16 ± 0.86	> 10000	2700 ± 70	30 ± 2	–	276 to 277	–	–	–	–	–	–	–
COc1cc(OC)cc(C(=O)c2oc3cc(OC)c(C#CC(=O)NO)cc3c2C)c1 [Compound 11c, 3-[2-(3,5-Dimethoxybenzoyl)-6-methoxy-3-methyl-1-benzofuran-5-yl]-N-hydroxyprop-2-ynamide]	7.3 ± 0.03	43.9 ± 3	45.3 ± 2.93	96.5 ± 2.45	20 ± 0.7	560 ± 60	82 ± 1	13.8 ± 0.8	248 to 250	–	–	–	–	–	–	–
COc1ccc(C(=O)c2oc3cc(OC)c(C#CC(=O)NO)cc3c2C)cc1 [Compound 11d, N-Hydroxy-3-[6-methoxy-2-(4-methoxybenzoyl)-3-methyl-1-benzofuran-5-yl]prop-2-ynamide]	1.43 ± 0.67	4.09 ± 0.06	5.07 ± 0.22	> 10000	–	–	–	–	222 to 224	1500 to 10000	–	–	–	–	–	–
COc1cccc(C(=O)c2oc3cc(OC)c(C#CC(=O)NO)cc3c2C)c1 [Compound 11e, N-Hydroxy-3-[6-methoxy-2-(3-methoxybenzoyl)-3-methyl-1-benzofuran-5-yl]prop-2-ynamide]	8.4 ± 0.98	96.7 ± 1.65	94.4 ± 3.03	4.89 ± 0.03	15	420 ± 30	81 ± 3	> 30	–	–	–	does not show any activity at the highest concentration tested	–	–	–	–
COc1cc2oc(C(=O)c3ccccc3OC)c(C)c2cc1C#CC(=O)NO [Compound 11f, N-Hydroxy-3-[6-methoxy-2-(2-methoxybenzoyl)-3-methyl-1-benzofuran-5-yl]prop-2-ynamide]	60.5 ± 2.26	345 ± 4.03	276 ± 6.74	4568 ± 21.4	240 ± 10	5400 ± 100	20 ± 2	–	243 to 245	–	–	–	–	–	–	–
COc1cc2oc(C(=O)c3ccccc3)c(C)c2cc1C#CC(=O)NO [Compound 11g, 3-(2-Benzoyl-6-methoxy-3-methyl-benzofuran-5-yl)prop-2yne hydroxamic acid]	15.2 ± 0.02	101 ± 0.03	206 ± 2.92	1.58 ± 0.06	–	–	–	–	205 to 206	–	–	–	–	–	–	–
COc1cc(C(=O)c2oc3ccc(C#CC(=O)NO)cc3c2C)cc(OC)c1OC [Compound 11h, 3-[3-Methyl-2-(3,4,5-trimethoxybenzoyl)benzofuran-5-yl]prop-2-yne hydroxamic acid]	> 10000	> 10000	> 10000	> 10000	> 10000	–	–	–	254 to 256	> 10000	–	–	–	–	–	–
CC(/C=C/C(=O)NO)=C\[C@@H](C)C(=O)c1ccc(N(C)C)cc1 [TSA, Trichostatin, reference compound]	–	–	–	–	–	–	–	–	–	–	–	–	43.90	38.65	17.44	sensitive only to the higher dose
